Data published in PubChem BioAssay (NCI).
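All cell lines were grown in 96-well plates and treated with compound for 48 hours. GI50: concentration for 50% inhibition of growth. TGI marks complete inhibition of growth.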

What was measured:
Assay in all cases: NCI-60 cell line screen, 48 h
HCT-15 colon = system: HCT-15 colon
RPMI-8226 leukemia = system: RPMI-8226 leukemia
A549 NSCLC = system: A549 NSCLC
OVCAR-4 ovarian = system: OVCAR-4 ovarian
RXF 393 renal = system: RXF 393 renal
UACC-62 melanoma = system: UACC-62 melanoma
KM12 colon = system: KM12 colon
HCT-116 colon = system: HCT-116 colon
NCI-H460 lung = system: NCI-H460 lung
SF-539 CNS = system: SF-539 CNS

| Compound | GI50 (HCT-15 colon) [µM] | TGI (HCT-15 colon) [µM] | GI50 (RPMI-8226 leukemia) [µM] | TGI (RPMI-8226 leukemia) [µM] | GI50 (A549 NSCLC) [µM] | TGI (A549 NSCLC) [µM] | GI50 (OVCAR-4 ovarian) [µM] | TGI (OVCAR-4 ovarian) [µM] | GI50 (RXF 393 renal) [µM] | TGI (RXF 393 renal) [µM] | GI50 (UACC-62 melanoma) [µM] | TGI (UACC-62 melanoma) [µM] | GI50 (KM12 colon) [µM] | TGI (KM12 colon) [µM] | GI50 (HCT-116 colon) [µM] | TGI (HCT-116 colon) [µM] | GI50 (NCI-H460 lung) [µM] | TGI (NCI-H460 lung) [µM] | GI50 (SF-539 CNS) [µM] | TGI (SF-539 CNS) [µM] |
| --- | --- | --- | --- | --- | --- | --- | --- | --- | --- | --- | --- | --- | --- | --- | --- | --- | --- | --- | --- | --- |
| c1ccc([As]=[As]c2ccccc2)cc1 (stereo not given) | 0.416 | 2.24 | 0.543 | 2.97 | 1.87 | 3.9 | 1.08 | 2.43 | 0.58 | 2.04 | 1.12 | 2.41 | 1.87 | 3.69 | 1.14 | 3.7 | 2.01 | 4.15 | 0.884 | 2.36 |
| C#CCN(C(=O)C(F)(F)F)c1ccc(C(=O)c2ccc(N(CC#C)C(=O)C(F)(F)F)cc2)cc1 |  | 79.9 |  | 51.2 |  | > 100 |  | > 100 |  | > 100 |  | 54.1 |  | > 100 |  | > 100 |  | > 100 |  | > 100 |
| COc1cccc(C2C3=C(COC3=O)N(CCO)c3cc4c(cc32)OCO4)c1 (stereo not given) | 1.02 | > 50 | 0.706 | > 50 | 0.631 | > 50 | 2.32 | > 50 | 0.0994 | 0.352 |  | > 50 | 0.192 |  | 0.235 | > 16.1 | 0.189 |  | 0.36 |  |
| Cc1c(C(N)=O)sc2c1c(=O)n(Cc1ccccc1)c1nnc(-c3ccc(Br)cc3)n21 | 0.705 | 17.9 | 4.72 | 47.7 | 2.51 | 13.1 | 2.51 | 15.8 | 1.81 | 7.15 | 1.78 | 8.46 | 3.31 | 17.9 | 1.75 | 13.6 | 0.813 | 6.55 | 2.87 | 12.5 |
| N#CN1CC[C@H](C(=O)Nc2cc3cc(C(N)=O)ccc3cn2)C1 | 0.302 | > 100 | 0.272 | 1.46 | 0.527 | > 100 | 0.041 | 1.6 | 0.0426 | 0.21 | 0.0587 | 0.399 | 0.0566 | 12 | 0.104 | 15.3 | 0.188 | > 44 | 0.0589 | 0.319 |
| CCN(CC)CCn1[nH]c2c3ccc(=O)cc3sc3c(NCCN)ccc1c32 |  | 16.7 |  | 1.97 |  | 14.5 |  | 2.28 |  | 3.43 |  | 1.48 |  | 2.75 |  | 2.19 |  | 1.25 |  | 1.72 |
| CCn1c2ccccc2c2ccc(C3C(C(=O)OC)=C(C)NC(C)=C3C(=O)OC)cc21 |  | > 100 |  | 80.8 |  | > 100 |  | > 100 |  | 49.4 |  | > 100 |  | > 100 |  | > 100 |  | > 100 |  | > 100 |
| Cc1nc2sccn2c1C(=O)NC(=O)Nc1ccc(Cl)cc1 |  | > 100 |  | > 100 |  | > 100 |  | > 100 |  | > 100 |  | > 100 |  | > 100 |  | > 100 |  | > 100 |  | > 100 |
| CCOC(=O)C(CNc1ccc(O)cc1)NC(=O)c1ccccc1 (stereo not given) |  | > 100 |  | > 100 |  | > 100 |  | > 100 |  | > 100 |  | > 95 |  | > 100 |  | > 100 |  | > 100 |  | > 100 |
| CC1=C[C@H]2C[C@H](C)[C@H]3CC[C@H](C)[C@]4(C1)C(=O)C(O)=C(C)C(=O)[C@@]324 | 32.7 | > 100 | 13.1 | 32.4 | 28.5 | > 100 | 29.8 | > 100 | 60.9 | > 100 | 22 | 80.2 | 29.4 | > 100 | 19.5 | 41.8 | 42.9 | > 100 | 52.6 | > 100 |
| COc1cc(C2C3=C(COC3=O)N(CCO)c3cc4c(cc32)OCO4)cc(OC)c1O (stereo not given) | 8.01 | > 50 | 1.57 | > 50 | 5.62 | > 50 | 2.99 | > 50 | 0.576 | 2.11 |  | > 50 | 1.35 | > 20.6 | 1.88 | > 26.3 | 1.69 | > 15.9 | 1.47 | > 13.6 |
| CCS(=O)(=O)c1ccc(OC)c(Nc2ncc(-c3ccccc3Cl)o2)c1 | 9.01 | > 25 | 13.4 | > 25 | 10 | > 25 | 13 | > 25 | 7.35 | > 21.7 | 11.3 | > 25 | 7.59 | > 25 | 10.1 | > 25 | > 17.7 | > 25 | 10.6 | > 25 |
| Cc1cc(O)c(/C=N/C(=S)Nc2ccccc2)c(=O)o1 |  | > 100 |  | > 100 |  | > 100 |  | > 100 |  | > 100 |  | > 100 |  | > 100 |  | > 100 |  | > 100 |  | > 100 |
| CC[N+](C)(CC)CC(C)(C)C(=O)/C=C/c1ccc(/C=C/C(=O)C(C)(C)C[N+](C)(CC)CC)cc1 |  | > 100 |  | > 100 |  | > 100 |  | > 100 |  | > 100 |  | > 100 |  | > 100 |  | > 100 |  | > 100 |  | > 100 |
| COc1ccc(C2C=C(c3ccc(Cl)cc3)N=C3SC=C(C)N32)c(Br)c1 (stereo not given) | 2.42 | 12.2 | 2.18 | 9.67 | 3 | 24.7 | 3.89 | 34.6 | 2.39 | 9.59 | 3.8 | 15.7 | 2.26 | 5.77 | 2.58 | 11 | 2.24 | 5.87 | 2.15 | 5.37 |
| Cc1cccc(NC(=O)/C=C/c2ccc([N+](=O)[O-])cc2)c1 |  | > 56.7 |  | > 68.8 |  | > 56.2 |  | > 56.3 |  | > 52.7 |  | > 58.5 |  | > 52.8 |  | > 52.9 |  | > 64.5 |  | > 74.1 |
